Reference: patent US6046231A, “Use of 4'-bromoflavone in a cancer chemopreventative composition and method” (The Board of Trustees of the University of Illinois, priority 1999, dated 2000)

What was measured:
[1] = test system: cytochrome P4501A1; assay: Effect on DMBA-induced cytochrome P4501A1 activity in rat tissues; format: in vivo, Sprague Dawley rat
Description: At 43 days of age, Sprague Dawley rats were placed on various experimental diets (Table 1) for 1 week prior to administration of a single (i.g.) dose of DMBA (15 mg). Animals then were weighed and sacrificed by CO2 asphyxiation. Tissues (livers and mammary glands) were collected, rinsed with saline, frozen in liquid nitrogen, and stored at -80° C. until analysis. Individual tissues were homogenized in 0.05 M Tris-HCl buffer (pH 7.5) containing 0.25 M sucrose. Cytosolic and microsomal fractions were obtained through differential centrifugation. Dicumarol-sensitive QR activity was measured as described above using 50 μl of suitably diluted cytosol supernatants (in duplicate). Cytochrome P4501A1-mediated EROD activities were determined as described previously in R. Poul et al. Anal. Biochem., 107, pp. 265-275 (1980) and S. Sharma et al., Cancer Res., 54, pp. 5848-5844 (1994), with slight modifications using suitably diluted microsomal protein. Enzyme activities were expressed as nmol/mg protein/min. Protein content was determined using Bradford reagent with BSA as standard, and data were presented as mean ±SE and analyzed using Student's t test (n=5).

[2] = test system: quinone reductase (QR); assay: Induction of quinone reductase (QR) in mouse liver and mammary glands (Table 3); format: in vivo
[3] = test system: quinone reductase (QR), Hepa 1c1c7 cells; assay: Quinone reductase (QR) induction in Hepa 1c1c7 cells; format: cell-based, murine
Excerpt: This test was used because the specific activity of QR rises concomitantly with other phase II enzymes in many animal tissues in response to various chemopreventive agents. The study included natural and synthetic B-ring substituted flavones, as well as biosynthetic precursor chalcones and flavanones.
(§1) Determination of Quinone Reductase Activity in Cell Cultures. To determine the potency of inducers, Hepa 1c1c7 murine hepatoma cells as described in the Gerhauser publication were placed in 96-well plates at a density of 1×10^4 cells/ml in 200 μl of medium. After a preincubation period of 24 hr, the media were decanted and 190 μl fresh media were added to each well. Ten (10) μl test agents dissolved in 10% DMSO (final concentration of DMSO is 0.5%) with a serial 2-fold dilutions were introduced to each well, and the plates were incubated for an additional 48 hours. Specific QR activity was determined by measuring the NADPH-dependent menadiol-mediated reduction of 3-(4, 5-dimethylthiazo-2-yl)-2,5-diphenyltetrazolium bromide to blue formazan formed per mg protein per minute. Protein was determined in an identical set of test plates by staining with crystal violet. Hepa 1c1c7 cells retain many characteristics of normal issues, particularly the capacity for carcinogen activation and metabolism. They are amenable to precise control of environmental, nutritional, and hormonal factors. […] Induction of QR activity was calculated by comparing the QR specific activity of agent-treated cells with that of solvent-treated cells, and a plot of ratio was generated. CD represents the concentration required to double QR induction. Chemopreventive index (CI) is an indexing value generated by comparing CD with IC50 (concentration for 50% inhibition of cell viability) values.
Induction of Quinone Reductase in Hepa 1c1c7 Cells. […] Modification of the B-ring of chalcones, flavanones, and flavones was hypothesized to induce torsion of the B-ring, and, therefor, simulate out-of-plane distortions characteristic of polycyclic aromatic hydrocarbons, such as DMBA. Induction of QR activity was calculated by comparing the QR specific activity of agent-treated cells with the QR specific activity of solvent-treated cells, and a plot of ratios was generated. CD represents the concentration required for a double fold of induction. CI (Chemopreventive Index) is a value obtained by comparing CD with IC50 (concentration for 50% inhibition of cell viability in […]).

[4] = test system: H4IIE rat hepatoma cells; assay: Toxicity in H4IIE rat hepatoma cells; format: cell-based
[5] = test system: quinone reductase (QR), mutant Hepa 1c1c7 cells (TAOBP^r cl and BP^r cl); assay: QR induction in mutant Hepa 1c1c7 cell lines (mono-/bifunctional inducer); format: cell-based, murine; settings: wild-type vs mutant cells
Description: as §1, with “violet.” for “violet. Hepa 1c1c7 cells retain many characteristics of normal issues, particularly the capacity for carcinogen activation and metabolism. They are amenable to precise control of environmental, nutritional, and hormonal factors.”, “CD represents the concentration required to double QR induction. Chemopreventive index (CI) is an indexing value generated by comparing CD with IC50 (concentration for 50% inhibition of cell viability) values.” left out
Induction of Quinone Reductase in Hepa 1c1c7 Cells. […] Induction of QR activity was calculated by comparing the QR specific activity of agent-treated cells with the QR specific activity of solvent-treated cells, and a plot of ratios was generated. […]

[6] = test system: pDTD-1097CAT construct (QR gene 5'-region), HepG2 cells; assay: CAT expression in HepG2 cells transfected with pDTD-1097CAT; format: cell-based, human cells; rat QR gene; settings: 10 μM, 48 h; p<0.0001
Description: Transcient Transfection Gene Expression Assay. Cultured HepG2 human hepatoma cells were transfected with three plasmid constructs (PDTD-1697CAT, XRE-CAT, ARE-CAT) containing various portions of the 5'-region of the QR gene fused to the CAT gene using the calcium phosphate precipitation method (J. Sambrook et al., Molecular cloning: A Laboratory Handbook, Ed. Chris Nolan, CHS Laboratory Press, 1989). After 4 hours of transfection, the cells were treated with 10% glycerol for 3 minutes and rinsed with PBS and switched to MEM, containing 100 units/ml penicillin G sodium, 100 units/ml streptomycin sulfate, nonessential amino acids, and 1 mM sodium pyruvate (Life Technologies Inc.) supplemented with 10% fetal bovine serum for 12-16 hours recovery. Then, test agents were added to the cells. After 48 hours of treatment with the test agents, cells were harvested with lysis buffer (Boehringer Mannheim Biochemical) and CAT protein expressions were assessed using a CAT ELISA kit (Boehringer Mannheim Biochemical). […] All data were expressed as mean +/- SD. […]
In particular, FIG. 1 illustrates quantitation of CAT expression in HepG2 cells transfected with QR-CAT constructs. […] CAT expression (ng CAT/mg protein) was determined using a CAT ELISA, and the ratio of CAT expression between treated and control cells was calculated (ratio=treated/control).

SMILES: O=c1cc(-c2ccc(Br)cc2)oc2ccccc12 [4'-Bromoflavone]
- cytochrome P4501A1 activity vs control (basal diet) ([1]; liver and mammary gland, each treatment regimen): significantly induced
- DMBA-induced cytochrome P4501A1 activity ([1]; liver or mammary gland, in addition to DMBA): did not significantly alter
- QR (Treated/Control), Liver ([2]; liver): 5.27
- QR (Treated/Control), Mammary Gland ([2]; mammary gland): 2.66
- Cq ([3]; Hepa 1c1c7 cells): 0.15 µM
- CI, chemoprevention index (IC50/CD) ([3]; IC50/CD, 2880 min): > 17000
- EC (2-fold) ([3]; Mus musculus, Hepa-1c1c7, 48 h, Hepa 1c1c7 cells, 48 h, read-out: CD, concentration to double the specific activity of QR): 0.01 µM
- times more active than sulforaphane ([3]; compared to sulforaphane): about 40 times
- toxicity in H4IIE cells [4]: no observed toxicity
- inducer type (mono-/bifunctional) [5]: bifunctional inducer
- CAT expression, pDTD-1097CAT [6]: significantly (p<0.0001) induced
